The term melting point denotes the temperature of the solid-liquid transition. What is called Ki is the dissociation constant of the complex between target and ligand, obtained from inhibition or displacement. A low value points to a stronger hold on the target.

Experimental findings from patent publication US7414059B2, “Pyrazolyl and imidazolyl pyrimidines as CRF antagonists” (Roche Palo Alto LLC, priority 2003, dated 2008) are described below.

One series has as its target T1, CRF1 receptor (Homo sapiens, UniProt P34998).
T1 construct: Cell membranes are prepared according the method of Dieterich and DeSouza (1996); endogenous in cells; host or cells: IMR-32 human neuroblastoma cells (membrane preparation)
T1 sequence (P34998 24-415): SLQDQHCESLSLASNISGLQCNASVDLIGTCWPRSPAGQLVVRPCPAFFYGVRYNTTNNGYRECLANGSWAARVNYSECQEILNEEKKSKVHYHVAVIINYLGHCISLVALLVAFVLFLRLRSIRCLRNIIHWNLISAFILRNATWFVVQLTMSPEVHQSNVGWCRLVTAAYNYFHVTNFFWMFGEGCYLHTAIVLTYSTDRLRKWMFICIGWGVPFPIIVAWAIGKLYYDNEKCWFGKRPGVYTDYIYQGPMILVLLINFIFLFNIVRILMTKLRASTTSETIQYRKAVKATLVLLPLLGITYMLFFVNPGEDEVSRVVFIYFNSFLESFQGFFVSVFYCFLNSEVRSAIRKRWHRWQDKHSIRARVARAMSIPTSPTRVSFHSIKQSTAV
Nature of the series: CRF1 Receptor Binding Assay. As to conditions: competition binding with [125I]Tyr0-ovine CRF, human IMR-32 neuroblastoma cell membranes; pKi derived from pIC50. The method, then:
CRF1 Receptor Binding Assay
Human IMR-32 neuroblastoma cells are grown to 80% confluence in MEM medium containing 10% heat-inactivated FBS, lmM Sodium Pyruvate, and 0.1 mM nonessential amino acids. Cell membranes are prepared according the method of Dieterich and DeSouza (1996). The cells (˜5E+9) are resuspended in 10 volumes of wash buffer (5 mM Tris HCl, 10 mM MgCl2, 2 mM EGTA, pH 7.4 at RT), homogenized with a Polytron, and then centrifuged at 45,000 G for 20 min at 4° C. The membrane pellets are washed twice with wash buffer (45,000 G for 20 min at 4° C.) and then resuspended (50 mM Tris HCl, 10 mM MgCl2, 2 mM EGTA, pH 7.4 at RT). Protein concentration is determined using Pierce reagents and BSA as standard. Aliquots of 1-1.5 mL are stored at −80° C. until binding assay.
The competition binding assay is performed in a final volume of 250 μl, which contains assay buffer (50 mM Tris-HCl, 10 mM MgCl2, 2 mM EGTA, 0.2% BSA, 0.1 mM bacitracin and 100 kIU/mL aprotinin pH 7.2 at R.T.), 0.05 nM [^125I]Tyr^0-ovine CRF (Du Pont New England Nuclear), 50 μg of membrane protein, and test compound at various concentrations. Non-specific binding is determined with 1 uM hCRF. Binding reactions are terminated after 2 hr incubation at 25° C. by filtering through 96-w GF/C filter plate using a Packard Harvester (Filtermate 196). The 96-w filter plate is pre-treated with 0.3% polyethyleneimine and pre-washed with washing buffer (50 mM Tris-HCl, 10 mM MgCl2, 2 mM EGTA, 0.2% BSA, pH 7.2 at 4° C.). Unbound radioactivity is removed by four rapid washes (0.8 ml/well) with wash buffer. The radioactivity is quantified using a Packard TopCount. Data are analyzed using non-linear iterative curve fitting to obtain IC50 and Hill slope values. PKi values are derived from pIC50 values (−log of IC50).

Counter-ions that a name gives are not always drawn.

`Cc1ccn(-c2cc(Nc3c(Cl)cc(Cl)cc3Cl)nc(C)n2)n1` (as salt: hydrochloride) [[2-Methyl-6-(3-methyl-pyrazol-1-yl)-pyrimidin-4-yl]-(2,4,6-trichloro-phenyl)-amine] returned a melting point of 245 to 247 °C. In turn, `CCCc1ccn(-c2nc(C)nc(Nc3c(Cl)cc(Cl)cc3Cl)c2C)n1` [[2,5-Dimethyl-6-(3-propyl-pyrazol-1-yl)-pyrimidin-4-yl]-(2,4,6-trichloro-phenyl)-amine] had a Ki at CRF1 receptor of 1.62 µM. Compound `Cc1ccn(-c2cc(Nc3c(Cl)cc(Cl)cc3Cl)nc(C)n2)n1` [[2-Methyl-6-(3-methyl-pyrazol-1-yl)-pyrimidin-4-yl]-(2,4,6-trichloro-phenyl)-amine] had a Ki on CRF1 receptor of 1.07 µM. On CRF1 receptor, `Cc1cn(-c2nc(C)nc(Nc3c(Cl)cc(Cl)cc3Cl)c2Cl)cn1` [[5-Chloro-2-methyl-6-(4-methyl-imidazol-1-yl)-pyrimidin-4-yl]-(2,4,6-trichloro-phenyl)-amine] gave a Ki of 1.91 µM.
